# Literature values as cited in patent US20170239312A1, “WEIGHT MANAGEMENT SYSTEMS AND RELATED METHODS” (priority 2013, published 2017).
# Columns and labels:
# [1] = caffeine alone
# [2] = fed capsaicin versus saline (control group)
# [3] = obese rats, 10 mg/kg-body weight
# [4] = system: 3T3-L1 pre-adipocytes; settings: dose- and time-dependent
# [5] = 50-200 mg/day
# [6] = mice, high fat diet, 10 weeks
molecule,measurement,setting,value
Cn1c(=O)c2c(ncn2C)n(C)c1=O [Caffeine],Effect on thermogenesis or fat oxidation,[1],no effect
COc1cc(CNC(=O)CCCC/C=C/C(C)C)ccc1O [capsaicin],Decrease in body weight,[2],8%
O=c1c(O)c(-c2ccc(O)c(O)c2)oc2cc(O)cc(O)c12 [quercetin],Body weight gain,[3],reduced body weight gain
same,Apoptosis (cell suicide),[4],induced apoptosis
CCNC(=O)CC[C@H](N)C(=O)O [theanine],Time to sense of relaxation,[5],30 to 40 min
fucoxanthin,Body weight and adipose tissue,[6],significant decrease in body weight and adipose tissue
